This note sets out measurements from patent publication US11412737B2, “Mixtures of beflubutamid or optically enriched forms thereof with a second herbicide” (FMC Corporation, priority 2016, dated 2022).

Assay [1] concerns Littleseed canarygrass (PHAMI). Nature of the assay: post-emergence test, weed control. The note with it: post-emergent, 28 DAT, height 7-8 cm, rate g ai/ha by row: r25 94, r26 125, r27 188, r28 125, r29 250, r30 94+125, r31 125+125, r32 188+125, r33 94+250, r34 125+250, r35 188+250. It is filed as in vivo, Phalaris minor. The method, then:
(§1) Test compositions containing the test compounds were diluted with water to provide the appropriate test rate concentrations.
(§2) For post-emergence testing, seeds of each species for each rate of application of each herbicide solution were planted in 7.5 cm×7.5 cm plastic pots filled with potting soil. The seeds were germinated and the resulting plants were allowed to grow in a greenhouse until they reached a growth stage, such as height, suitable for testing. Treatments were applied using compressed air in a track spray chamber at 30 gallons/acre (280 L/ha) using a TeeJet 8001E nozzle at 40 psi (2.76 bars). Pots of post-emergent treated plants were returned to the greenhouse and not watered for 24 hours after treatment. Thereafter they were regularly watered and fertilized for the duration of the test.
(§3) The control of weeds was evaluated in each experimental test at 21 for wheat and 28 days after treatment (DAT) for all species. Data were analyzed using Minitab software at 95% confidence interval. The results, shown as an average of the replications, were compared with results observed in untreated control flats in the same tests. Percent control was determined by a method similar to the 0 to 100 rating system disclosed in “Research Methods in Weed Science,” 2nd ed., B. Truelove, Ed.; Southern Weed Science Society; Auburn University, Auburn, Ala., 1977. The rating system is as follows in Table 1.

The next assay has as its system Barnyardgrass (ECHCG). Briefly: post-emergence test, weed control. It is filed as in vivo, Echinochloa crus-galli. The note with it: post-emergent, 28 DAT; for percentage of weed control, ECHCG: height 8-9 cm, rate g ai/ha by row: r7 94, r8 125, r9 188, r10 125, r11 250, r12 94+125, r13 125+125, r14 188+125, r15 94+250, r16 125+250, r17 188+250. The method, then:
as §1
For post-emergence testing, seeds of each species for each rate of application of each herbicide solution were planted in 7.5 cm×7.5 cm plastic pots filled with potting soil. The seeds were germinated and the resulting plants were allowed to grow in a greenhouse until they reached a growth stage, such as height, suitable for testing. […] Pots of post-emergent treated plants were returned to the greenhouse and not watered for 24 hours after treatment. Thereafter they were regularly watered and fertilized for the duration of the test.
The control of weeds was evaluated in each experimental test at 21 for wheat and 28 days after treatment (DAT) for all species. […] The rating system is as follows in Table 1.

Another assay deals with Green foxtail (SETVI). Nature of the assay: post-emergence test, weed control. It is filed as in vivo, Setaria viridis. The note with it: post-emergent, 28 DAT, height 4-5 cm, rate g ai/ha by row: r7 94, r8 125, r9 188, r10 125, r11 250, r12 94+125, r13 125+125, r14 188+125, r15 94+250, r16 125+250, r17 188+250.
The next assay deals with Annual bluegrass (POAAN). Briefly: post-emergence test, weed control. It is filed as in vivo, Poa annua. The note with it: post-emergent, 28 DAT, height 1-2 cm; rate g ai/ha by row: r7 94, r8 125, r9 188, r10 125, r11 250, r12 94+125, r13 125+125, r14 188+125, r15 94+250, r16 125+250, r17 188+250. As to the method: as §1, §2, §3
The subject of the next assay is Redrice (ORYSA). Nature of the assay: post-emergence test, weed control. It is filed as in vivo. The note with it: post-emergent, 28 DAT, height 8 cm, rate g ai/ha by row: r25 94, r26 125, r27 188, r28 125, r29 250, r30 94+125, r31 125+125, r32 188+125, r33 94+250, r34 125+250, r35 188+250. The method, then:
as §1, §2, §3

Another assay concerns Cheat grass (BROSE). Nature of the assay: post-emergence test, weed control. It is filed as in vivo. The note with it: post-emergent, 28 DAT, height 7 cm; rate g ai/ha by row: r7 94, r8 125, r9 188, r10 125, r11 250, r12 94+125, r13 125+125, r14 188+125, r15 94+250, r16 125+250, r17 188+250. The method, then: as §1, §2, §3
In the next assay the test system is Shattercane (SOBIA). Nature of the assay: post-emergence test, weed control. It is filed as in vivo. The note with it: post-emergent, 28 DAT, height 8 cm, rate g ai/ha by row: r25 94, r26 125, r27 188, r28 125, r29 250, r30 94+125, r31 125+125, r32 188+125, r33 94+250, r34 125+250, r35 188+250. As to the method: as §1, §2, §3
The test system of another assay is Italian ryegrass (LOLMU). Nature of the assay: post-emergence test, weed control. It is filed as in vivo, Lolium perenne. multiflorum. The note with it: post-emergent, 28 DAT; for percentage of weed control, LOLMU: height 5-6 cm, rate g ai/ha by row: r25 94, r26 125, r27 188, r28 125, r29 250, r30 94+125, r31 125+125, r32 188+125, r33 94+250, r34 125+250, r35 188+250; for control of Italian rygrass (LOLMU): combination of both. As to the method:
as §1, §2, §3

For assay [2], the system named is Common lambsquarters (CHEAL). Nature of the assay: pre-emergence test, weed control. It is filed as in vivo, Chenopodium album. The note with it: pre-emergent, 28 DAT; BFL at 125 g/ha, DCI at 125 g/ha, combination of both. The gist of the method: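 Seeds sown in top-soil flats and watered, then sprayed pre-emergence at 30 gallons per acre from a nozzle 10.5 inches above soil; flats kept in the greenhouse with regular watering and fertilizing. Percent control (0–100 scale versus untreated flats) scored at 21 DAT for wheat and 28 DAT for all species, averaged over replicates.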

As for `CC1(C)CON(Cc2ccc(Cl)cc2Cl)C1=O` [DCI, 2-(2,4-dichlorophenyl)methyl-4,4-dimethyl-3-isoxazolidinone], the “percentage of weed control, PHAMI” value in assay [1] (125 g ai/ha) was determined as 4%; in assay [1] (250 g ai/ha) it was 2%. Further, the “percentage of weed control, ECHCG” value in the assay with Barnyardgrass (ECHCG) (125 g ai/ha) is listed as 74%; in the assay with Barnyardgrass (ECHCG) (250 g ai/ha), 69%. Also, in the assay with Barnyardgrass (ECHCG) (BFL at 125 g/ha, DCI at 125 g/ha, combination of both), the “control of barnyardgrass (ECHCG)” value is reported as 74%. For the same molecule, the entries for the “percentage of weed control, SETVI” value in the assay on Green foxtail (SETVI) (125 g ai/ha) and in the assay with Green foxtail (SETVI) (250 g ai/ha) were 6% and 5%, respectively. The “percentage of weed control, POAAN” value in the assay on Annual bluegrass (POAAN) was determined as 0%. In addition, the “percentage of weed control, ORYSA” value in the assay with Redrice (ORYSA) (125 g ai/ha) is 26%; in the assay on Redrice (ORYSA) (250 g ai/ha) it was 42%. Moreover, in the assay on Cheat grass (BROSE), the “percentage of weed control, BROSE” value was 0%. Further, the figures for the “percentage of weed control, SOBIA” value with Shattercane (SOBIA) (125 g ai/ha) and in the assay with Shattercane (SOBIA) (250 g ai/ha) were 1% and 4%, respectively. Moreover, the “percentage of weed control, LOLMU” value with Italian ryegrass (LOLMU) (125 g ai/ha) was found to be 0%; with Italian ryegrass (LOLMU) (250 g ai/ha), 9%. The “control of Italian rygrass (LOLMU)” value is recorded as 0% in the assay with Italian ryegrass (LOLMU) (BFL at 188 g/ha, DCI at 125 g/ha) and 9% in the assay with Italian ryegrass (LOLMU) (DCI at 250 g/ha, BFL at 125 g/ha). For the same molecule, the “control of lambsquarters (CHEAL)” value in assay [2] stood at 24%.
